# Source: patent US10072304B2, “Nuclear localization of Src-family tyrosine kinases is required for growth factor-induced euchromatinization” (National University Corporation Chiba University, priority 2009, dated 2018)
# Test system: nuclear SFKs
# Test: In vitro tyrosine phosphorylation of purified nuclei (kinase activity of nuclear SFKs)
# Assay type: biochemical, monkey
# Conditions: purified COS-1 nuclei, 10 μM PP2, FIGS. 30 and 31
# Experimental: Nuclei were prepared as described previously. In brief, COS-1 and HeLa cells were swollen in hypotonic buffer (10 mM HEPES-KOH, pH 7.9, 1.5 mM MgCl2, 10 mM KCl, 0.5 mM DTT, and 1 mM Na3VO4) containing protease inhibitors (2 mM phenylmethylsulfonyl fluoride, 50 μg/mL aprotinin, 100 μM leupeptin, and 25 μM pepstatin A) at 4° C. for 20 min, followed by homogenization with 20 strokes in a tight-fitting 1-ml Dounce homogenizer. After cell suspension was centrifuged at 200×g for 5 min, cell pellets were resuspended in 0.25 M sucrose containing protease inhibitors, 10 mM MgCl2, and 1 mM Na3VO4. […]
# Confocal and Nomarski differential-interference-contrast images were obtained using a Fluoview FV500 confocal laser scanning microscope with a 40×1.00 NA oil and a 100×1.35 NA oil immersion objective (Olympus, Tokyo) and an LSM 510 confocal laser scanning microscope with a 63×1.40 NA oil immersion objective (Zeiss), as described. […] Emission signals were detected between 505 and 525 nm for fluorescein, at more than 560 nm for rhodamine and more than 610 nm for PI [44]. […] Fluorescence intensity plots of anti-histone H3K4me3, anti-ATF-2 pT69/71 and anti-HP1α antibody and PI staining (see FIGS. 18B, 19B, and 20B, respectively) were generated using Fluoview version 4.3 software (Olympus, Tokyo). […]
compound,measurement,value
CC(C)(C)n1nc(-c2ccc(Cl)cc2)c2c(N)ncnc21 [PP2],ATP-induced increase in nuclear tyrosine phosphorylation in purified nuclei,significantly inhibited
